Experimental data taken from ChEMBL document CHEMBL1201862, “PubChem BioAssay data set” (2004).
The source made the active and inactive calls.

Assays:
[1] = antiviral protection against BTV-induced cell death – arbovirus, BSR cells, confirmation (AID 1250); type: functional;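 note: protection from viral cytopathic effect measured as cell viability by ATP luminescence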
[2] = target: T1, Alkaline phosphatase, tissue-nonspecific isozyme (Homo sapiens, UniProt P05186)
T1 sequence (P05186 whole entry): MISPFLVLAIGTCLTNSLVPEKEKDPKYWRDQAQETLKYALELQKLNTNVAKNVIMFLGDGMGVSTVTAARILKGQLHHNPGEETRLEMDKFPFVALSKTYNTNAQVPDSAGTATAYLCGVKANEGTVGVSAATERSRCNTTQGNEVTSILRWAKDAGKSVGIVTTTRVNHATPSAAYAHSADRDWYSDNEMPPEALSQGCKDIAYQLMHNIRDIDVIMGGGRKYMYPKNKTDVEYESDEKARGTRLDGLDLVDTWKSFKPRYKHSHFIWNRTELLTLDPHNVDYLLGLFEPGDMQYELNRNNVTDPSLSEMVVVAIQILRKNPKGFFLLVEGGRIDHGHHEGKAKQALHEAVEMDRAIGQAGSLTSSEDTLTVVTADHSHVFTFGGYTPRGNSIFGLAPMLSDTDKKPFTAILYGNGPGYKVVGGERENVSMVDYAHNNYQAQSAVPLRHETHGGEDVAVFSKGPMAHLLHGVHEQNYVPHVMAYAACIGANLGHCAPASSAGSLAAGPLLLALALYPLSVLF

H9c2 = test: cells; type: functional, cell-based; conditions: Rattus norvegicus, H9c2, Myocardium
[3] = target: T2, Apoptotic protease-activating factor 1 (Homo sapiens, UniProt O14727); type: functional
T2 sequence (O14727 whole entry): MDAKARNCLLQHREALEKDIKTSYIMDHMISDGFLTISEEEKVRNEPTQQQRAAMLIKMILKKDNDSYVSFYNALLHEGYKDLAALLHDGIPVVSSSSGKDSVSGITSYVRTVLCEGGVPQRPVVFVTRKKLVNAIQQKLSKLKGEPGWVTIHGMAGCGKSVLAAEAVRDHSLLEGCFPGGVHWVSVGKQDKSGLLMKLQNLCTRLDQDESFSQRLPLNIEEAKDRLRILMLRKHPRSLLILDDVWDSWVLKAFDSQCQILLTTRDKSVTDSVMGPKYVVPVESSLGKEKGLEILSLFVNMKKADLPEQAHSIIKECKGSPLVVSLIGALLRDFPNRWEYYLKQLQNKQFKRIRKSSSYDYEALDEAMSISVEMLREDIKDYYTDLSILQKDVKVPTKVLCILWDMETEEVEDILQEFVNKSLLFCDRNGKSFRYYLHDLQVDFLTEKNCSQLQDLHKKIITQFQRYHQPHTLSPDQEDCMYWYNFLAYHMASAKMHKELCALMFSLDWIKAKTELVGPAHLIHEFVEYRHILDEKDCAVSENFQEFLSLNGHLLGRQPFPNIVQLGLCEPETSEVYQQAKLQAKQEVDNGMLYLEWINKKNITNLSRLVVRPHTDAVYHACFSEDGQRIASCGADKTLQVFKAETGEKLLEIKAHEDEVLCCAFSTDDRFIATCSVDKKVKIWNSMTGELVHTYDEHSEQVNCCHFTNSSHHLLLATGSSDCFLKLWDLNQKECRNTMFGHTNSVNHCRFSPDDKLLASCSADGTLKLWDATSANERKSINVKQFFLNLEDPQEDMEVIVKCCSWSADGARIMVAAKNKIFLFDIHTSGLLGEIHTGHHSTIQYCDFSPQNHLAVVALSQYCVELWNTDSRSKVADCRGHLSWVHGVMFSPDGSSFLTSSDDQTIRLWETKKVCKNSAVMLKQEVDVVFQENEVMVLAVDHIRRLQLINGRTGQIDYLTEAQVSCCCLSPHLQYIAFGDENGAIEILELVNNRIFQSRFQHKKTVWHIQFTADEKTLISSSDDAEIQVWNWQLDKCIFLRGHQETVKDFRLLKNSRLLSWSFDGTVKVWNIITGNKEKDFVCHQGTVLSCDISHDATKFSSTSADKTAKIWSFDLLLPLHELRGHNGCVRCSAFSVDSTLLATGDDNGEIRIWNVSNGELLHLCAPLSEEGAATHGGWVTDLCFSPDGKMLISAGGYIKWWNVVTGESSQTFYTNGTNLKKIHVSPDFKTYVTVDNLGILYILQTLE

[4] = target: T3, Neuropeptide Y receptor type 2 (Homo sapiens, UniProt P49146); type: functional, cell-based;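 note: HEK293 cells expressing the receptor and a CNG channel; stimulus was NPY near EC95 followed by isoproterenol to raise cAMP; antagonist potency measured as restoring cAMP signal that NPY suppresses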
T3 sequence (P49146 whole entry): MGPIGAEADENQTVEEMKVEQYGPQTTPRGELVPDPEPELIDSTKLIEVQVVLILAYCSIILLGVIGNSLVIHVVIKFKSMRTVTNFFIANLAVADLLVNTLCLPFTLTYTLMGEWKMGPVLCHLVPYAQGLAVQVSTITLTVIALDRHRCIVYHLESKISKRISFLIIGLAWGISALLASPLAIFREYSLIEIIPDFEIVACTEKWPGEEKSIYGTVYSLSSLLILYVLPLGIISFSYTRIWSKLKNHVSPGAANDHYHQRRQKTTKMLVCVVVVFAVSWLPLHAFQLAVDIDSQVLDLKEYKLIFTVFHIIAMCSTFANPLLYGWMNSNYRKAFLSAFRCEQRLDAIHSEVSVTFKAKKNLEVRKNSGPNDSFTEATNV

[5] = target: T4, Neuropeptide Y receptor type 1 (Homo sapiens, UniProt P25929); type: functional;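 note: HEK293 cells with a CNG channel challenged with NPY then isoproterenol; potency as antagonist that reverses NPY suppression of cAMP signal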
T4 sequence (P25929 whole entry): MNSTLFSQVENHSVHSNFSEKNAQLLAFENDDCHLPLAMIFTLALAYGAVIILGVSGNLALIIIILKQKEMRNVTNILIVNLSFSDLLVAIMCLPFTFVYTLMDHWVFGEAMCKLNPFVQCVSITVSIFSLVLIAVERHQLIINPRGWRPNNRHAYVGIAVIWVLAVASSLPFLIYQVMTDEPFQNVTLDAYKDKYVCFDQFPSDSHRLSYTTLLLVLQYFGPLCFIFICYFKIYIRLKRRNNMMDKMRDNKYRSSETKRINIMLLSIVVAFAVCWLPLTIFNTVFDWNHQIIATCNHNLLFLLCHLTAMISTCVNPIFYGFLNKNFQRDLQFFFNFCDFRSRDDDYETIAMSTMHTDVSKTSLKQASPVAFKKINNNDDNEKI

[6] = Luminescence Cell-Based Dose Confirmation HTS to Identify Inhibitors of Platelet Dense Granule Release. [Related pubchem assays: 1663 (Primary HTS), 1678 (Summary of Project)]; type: functional
[7] = target: T5, Luciferin 4-monooxygenase (Photinus pyralis, UniProt P08659); test: inhibition of purified Photinus pyralis luciferase – biochemical, luminescence, dose response (AID 1891)
T5 sequence (P08659 whole entry): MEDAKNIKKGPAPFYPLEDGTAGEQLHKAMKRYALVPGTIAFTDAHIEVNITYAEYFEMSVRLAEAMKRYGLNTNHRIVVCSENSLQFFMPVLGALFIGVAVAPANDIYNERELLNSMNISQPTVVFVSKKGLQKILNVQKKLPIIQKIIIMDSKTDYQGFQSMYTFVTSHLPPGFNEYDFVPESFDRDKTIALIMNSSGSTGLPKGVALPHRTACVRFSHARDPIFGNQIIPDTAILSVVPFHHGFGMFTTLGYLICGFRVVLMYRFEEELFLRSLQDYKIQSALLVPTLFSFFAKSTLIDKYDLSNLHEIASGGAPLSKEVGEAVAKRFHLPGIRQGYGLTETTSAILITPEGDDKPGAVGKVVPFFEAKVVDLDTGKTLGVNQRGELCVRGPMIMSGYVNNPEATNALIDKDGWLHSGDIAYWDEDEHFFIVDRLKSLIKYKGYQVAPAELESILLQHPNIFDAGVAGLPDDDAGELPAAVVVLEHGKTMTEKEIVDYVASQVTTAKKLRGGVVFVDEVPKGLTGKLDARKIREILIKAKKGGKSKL

[8] = target: T6, Eukaryotic translation initiation factor 2-alpha kinase 3 (Homo sapiens, UniProt Q9NZJ5); test: Dose response cell-based high-throughput screening assay to measure PERK inhibition. [Related pubchem assays: 1416 ]; type: functional
T6 sequence (Q9NZJ5 whole entry): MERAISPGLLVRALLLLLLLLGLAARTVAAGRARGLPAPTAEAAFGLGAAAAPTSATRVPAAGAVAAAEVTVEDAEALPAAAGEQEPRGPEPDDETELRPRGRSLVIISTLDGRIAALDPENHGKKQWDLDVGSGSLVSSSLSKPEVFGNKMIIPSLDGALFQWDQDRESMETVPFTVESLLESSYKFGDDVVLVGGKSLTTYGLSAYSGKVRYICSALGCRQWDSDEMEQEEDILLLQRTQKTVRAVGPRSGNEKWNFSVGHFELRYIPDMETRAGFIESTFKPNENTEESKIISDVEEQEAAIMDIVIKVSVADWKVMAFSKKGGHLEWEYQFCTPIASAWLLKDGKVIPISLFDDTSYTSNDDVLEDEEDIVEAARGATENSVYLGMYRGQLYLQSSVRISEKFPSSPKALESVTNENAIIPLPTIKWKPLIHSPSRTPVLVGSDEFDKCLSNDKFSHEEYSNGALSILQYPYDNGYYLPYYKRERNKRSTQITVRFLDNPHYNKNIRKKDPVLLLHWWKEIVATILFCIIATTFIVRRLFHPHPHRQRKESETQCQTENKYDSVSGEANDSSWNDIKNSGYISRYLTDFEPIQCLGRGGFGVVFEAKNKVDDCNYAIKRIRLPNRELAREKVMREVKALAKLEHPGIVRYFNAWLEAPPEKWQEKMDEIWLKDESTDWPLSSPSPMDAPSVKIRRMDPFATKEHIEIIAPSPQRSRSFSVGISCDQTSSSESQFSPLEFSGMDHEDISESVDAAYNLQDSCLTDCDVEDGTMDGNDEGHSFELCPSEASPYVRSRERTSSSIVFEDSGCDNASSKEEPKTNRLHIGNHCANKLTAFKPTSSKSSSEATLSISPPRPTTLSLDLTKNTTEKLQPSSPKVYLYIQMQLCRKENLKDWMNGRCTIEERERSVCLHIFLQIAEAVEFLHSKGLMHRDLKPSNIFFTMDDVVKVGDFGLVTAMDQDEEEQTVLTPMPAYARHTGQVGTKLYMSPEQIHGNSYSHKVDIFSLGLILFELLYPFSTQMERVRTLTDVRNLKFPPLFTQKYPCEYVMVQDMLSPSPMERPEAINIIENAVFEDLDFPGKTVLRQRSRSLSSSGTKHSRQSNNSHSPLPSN

[9] = target: T6, Eukaryotic translation initiation factor 2-alpha kinase 3; test: Counterscreen assay for PERK inhibitors: Dose response cell-based high throughput screening assay to measure inhibition of PERK at 6 hours. [Related pubchem assays: 1522, 1416 ]; type: functional
[10] = target: T7, Polyadenylate-binding protein 1 (Homo sapiens, UniProt P11940); test: blockers of PABP interaction with poly(A) – biochemical, fluorescence polarization, […] (AID 2014)
T7 sequence (P11940 whole entry): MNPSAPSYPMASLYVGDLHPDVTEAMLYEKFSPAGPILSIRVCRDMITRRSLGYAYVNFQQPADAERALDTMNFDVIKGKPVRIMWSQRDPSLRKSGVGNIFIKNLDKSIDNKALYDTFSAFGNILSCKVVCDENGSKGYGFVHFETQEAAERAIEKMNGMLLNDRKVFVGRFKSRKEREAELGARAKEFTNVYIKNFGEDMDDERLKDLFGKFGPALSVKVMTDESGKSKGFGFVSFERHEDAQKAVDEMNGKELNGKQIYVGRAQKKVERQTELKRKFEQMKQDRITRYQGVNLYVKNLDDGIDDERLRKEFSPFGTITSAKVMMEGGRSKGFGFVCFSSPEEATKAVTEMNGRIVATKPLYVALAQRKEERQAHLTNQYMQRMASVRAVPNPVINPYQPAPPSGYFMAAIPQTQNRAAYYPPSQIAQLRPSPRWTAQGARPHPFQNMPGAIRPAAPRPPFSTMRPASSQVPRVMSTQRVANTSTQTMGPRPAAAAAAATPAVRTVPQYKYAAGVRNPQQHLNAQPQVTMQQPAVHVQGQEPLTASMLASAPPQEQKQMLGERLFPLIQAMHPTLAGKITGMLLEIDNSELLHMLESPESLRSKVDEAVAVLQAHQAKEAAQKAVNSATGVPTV

[11] = target: T8, Eukaryotic translation initiation factor 4H (Homo sapiens, UniProt Q15056); test: inhibitors of translation initiation factor eIF4H – SAR follow-up (AID 435011); type: functional
[12] = target: T7, Polyadenylate-binding protein 1; test: PABP inhibition in translation initiation, SAR follow-up (AID 435018); type: functional
[13] = target: T8, Eukaryotic translation initiation factor 4H; test: eIF4H binding inhibition – biochemical, uHTS, fluorescence polarization, translation initiation inhibitor project, primary screen (AID 2012)
[14] = target: T9, RNA-binding protein pos-1 (Caenorhabditis elegans, UniProt G5EF15); test: disruptors of C. elegans POS-1 RNA interaction – biochemical, fluorescence polarization, dose response (AID 1964);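 note: purified POS-1 fused to maltose binding protein made in E. coli; potency of compounds blocking POS-1 binding to fluorescent RNA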
T9 sequence (G5EF15 whole entry): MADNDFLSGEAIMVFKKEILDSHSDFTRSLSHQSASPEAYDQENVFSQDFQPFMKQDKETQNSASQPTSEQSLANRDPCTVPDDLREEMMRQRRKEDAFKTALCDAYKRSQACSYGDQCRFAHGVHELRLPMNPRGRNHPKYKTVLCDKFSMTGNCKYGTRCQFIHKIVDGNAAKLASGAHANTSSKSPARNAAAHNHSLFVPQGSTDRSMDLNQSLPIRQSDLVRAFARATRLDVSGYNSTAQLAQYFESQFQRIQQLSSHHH

[15] = target: T5, Luciferin 4-monooxygenase; test: Counter Screen for Luciferase-based Assay Positives. [Related pubchem assays: 620, 618, 411 ]
HT-1080 = test: HT1080 cell viability loss – fluorescence readout (AID 620); type: functional, cell-based; conditions: Homo sapiens
HeLa = test: viability loss in HeLa cells – cell-based, 24 h, cherry-picked samples, cytotoxicity control, dose response (AID 504726); type: functional; conditions: Homo sapiens;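 note: potency for cytotoxicity as loss of luminescence signal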

## COc1ccc(-c2cc(-c3ccc(Br)cc3)nc3ncnn23)cc1OC
[1]
  IC50: 52.8 µM (active)

## Cc1cc(C(=O)NNC(=O)CCCCC(=O)NNC(=O)c2cc(C)n[nH]2)[nH]n1
[2]
  EC50: 15.5 µM (active)

## Cc1ccc(-c2nn3c(C)nnc3c3ccccc23)cc1S(=O)(=O)NC(C)c1ccccc1 (configuration not stated)
H9c2
  IC50: 35.8 µM (inactive)
[3]
  IC50: 7.48 µM (active)
[4]
  IC50: 10.4 µM (not active)
[5]
  IC50: 20.3 µM (not active)
[6]
  EC50: > 112 µM (not active)
[7]
  EC50: > 112 µM (not active)

## O=C(NNc1nc2ccccc2s1)C1CC1
[8]
  EC50: > 55.7 µM (not active)
[9]
  EC50: > 55.7 µM (not active)

## Cc1ccc(NC(=O)CN2C(=O)N/C(=C/c3ccccc3OCc3cccc(C(=O)O)c3)C2=O)cc1
[10]
  IC50: > 100 µM (inactive)
[11]
  IC50: 8.36 µM (active)
[12]
  IC50: > 100 µM (inactive)
[13]
  IC50: 11.1 µM (active)

## Nc1ccc(S(=O)(=O)NNC(=O)C(=O)NNc2ccccn2)cc1
[2]
  EC50: 26.5 µM (active)
[14]
  EC50: 137 µM (active)

## Oc1cc(CSc2nnnn2-c2ccccc2)nc(Nc2ccc(F)cc2)n1
[1]
  IC50: 38.2 µM (active)

## COC(=O)c1ccc(-c2nc3cc(N)ccc3o2)cc1
[15]
  EC50: 0.2 µM (active)
HT-1080
  EC50: > 50 µM (not active)

## NNc1nnc2c3cc(F)ccc3n(Cc3ccccc3)c2n1
HeLa
  AC50: 217 µM (active)

## O=C(CCCC(=O)N/N=C/c1ccccc1C(=O)O)N/N=C/c1ccccc1C(=O)O
[8]
  EC50: > 55.7 µM (not active)
[9]
  EC50: > 55.7 µM (not active)
